Data as given in patent US7635779B2, “Oxy substituted flavones as antihyperglycemic and antidyslipidemic agents” (Council of Scientific & Industrial Research, priority 2004, dated 2009).
Where two headings read alike, the source gives them in different places. One block for each molecule: values may come before it.

Assays:
[1] = test system: triton WR-1339 induced hyperlipidemic rats; assay: Triton model, antidyslipidemic activity; assay type: in vivo, rat; conditions: Rattus norvegicus, 100 mg/kg oral, plasma after 18 h
Protocol: Male Charles foster rats weighing 200-225 g were divided into control, hyperlipidemic and hyperlipidemic plus drug treated groups containing six animals in each group. Hyperlipidemia was induced by administration of triton WR-1339 (200 mg/kg i.p.). All animals were maintained on a special pellet diet and water ad libitum. Compounds and standard drug were macerated with 0.2% aqueous gum acacia suspension. The suspension was fed orally at the dose of 100 mg/kg simultaneously with triton in drug treated group. The animals of control group received the same amount of gum acacia by similar route of administration. At the end of the experiment, after 18 h, blood was withdrawn from retro orbital plexus and plasma was used for the assay of total cholesterol, phospholipid and triglycerides.
Cholesterol was estimated using the kit provided by Roche Diagnostics. Cholesterol esters are enzymatically hydrolyzed by cholesterol esterase (CE) to cholesterol and free fatty acids. Free cholesterol, including that originally present, is then oxidized by cholesterol oxidase (CO) to cholest-4-en-3-one and hydrogen peroxide. The hydrogen peroxide combines with hydroxy benzoic acid (HBA) and 4-aminoantipyrine (4AAA) in the presence of peroxidase (POD) to form a chromophore (quinoneimine dye), which may be quantitated at 500-505 nm. The intensity of red colour formed is directly proportional to the concentration of total cholesterol in the specimen and measured spectrophotometrically (Searcy, C. L. Diagnostic Biochemistry, 1969, McGraw Hill, New York; Ellefson, R. D.; Caraway, W. T. Fundamentals of clinical chemistry, 1976, Ed Tietz N W, 506-515.)
Triglycerides were estimated using the kit provided by Roche Diagnostics. Lipoprotein lipase hydrolyses triglycerides to yield glycerol and fatty acids. Glycerol kinase converts glycerol to glycerol-3-phosphate, which is oxidized by glycerol phosphate oxidase to dihydroxy acetone phosphate and hydrogen peroxide. In the presence of peroxidase, hydrogen peroxide oxidatively couples with 4-aminoantipyrine and 4-chloro phenol to produce red quinonimine dye. The intensity of red colour formed is directly proportional to the concentration of triglycerides in the specimen and is measured by photometrically (Wahlefeld, A. W.; Bergmeyer, H. U. Ed. Methods of enzymatic analysis, 2nd English edition, New York, N.Y., Academic press inc, 1831-1840.).
Serum (0.2 mL) and perchloric acid (1.0 mL) was digested at 180° C. for 1-1.5 h till the solution became colorless. The liberated inorganic phosphate (Pi) was measured by the method of Fiske and Subbarow (Fiske, C. H.; Subbarow, V. J. Biol. Chem. 1925, 66, 375.). 1 mL of 2.5% ammonium molybdate (prepared in 5 N sulphuric acid) and 0.5 mL reducing agent (4-amino naphthol sulphonic acid, 0.2%), sodium metabisulphite (2.4% w/v in distilled water) was added to the above tubes and mixed well. The reaction mixture was […] with 2.5 mL of triple distilled water and kept at 60° C. in water bath for 20 min. For standard, an appropriate amount of potassium dihydrogen phosphate dissolved in triple distilled water containing 2-10 μg phosphorous (Pi) was run simultaneously with the experiment tubes. The optical density of the blue colour was recorded at 620 nm against reagent blank. The values of Pi were converted into phospholipid by multiplying with 25 (a constant calibrated from Pi value of lecithin).

[2] = test system: sucrose loaded rat; assay: Sucrose loaded rat model (SLM), antihyperglycemic activity; assay type: in vivo; conditions: for % Fall in blood glucose levels, SLM: 100 mg/kg oral, AUC vs control; for inhibition in vivo at 100 mg/kg: Rattus norvegicus, po, 2 h, read-out: % Fall in blood glucose levels, SLM
Protocol: Male albino rats of Charles Foster/Wistar strain of average body weight 160±20 g were selected for this study. The blood glucose level of each animal was checked by glucometer using glucostrips (Boehringer Mannheim) after 16 h starvation. Animals showing blood glucose levels between 3.33 to 4.44 mM (60 to 80 mg/dl) were divided into groups of five to six animals in each. Animals of experimental group were administered suspension of the desired synthetic compound orally (made in 1.0% gum acacia) at a dose of 100-mg/kg-body weight. Animals of control group were given an equal amount of 1.0% gum acacia. A sucrose load (10.0 g/kg) was given to each animal orally exactly after 30 min post administration of the test sample/vehicle. Blood glucose profile of each rat was again determined at 30, 60, 90 and 120 min post administration of sucrose by glucometer. Food but not water was withheld from the cages during the course of experimentation. Quantitative glucose tolerance of each animal was calculated by Area Under Curve (AUC) method (Prism Software). Comparing the AUC of experimental and control groups determined the percentage antihyperglycemic activity. Statistical comparison was made by Dunnett's test.

[3] = test system: streptozotocin-induced diabetic rats; assay: Sucrose-challenged streptozotocin-induced diabetic rats (STZ-S); assay type: in vivo, rat; conditions: 100 mg/kg oral
Protocol: Male albino rats of Sprague Dawley strain of body weight 160+20 g were selected for this study. Streptozotocin (Sigma, USA) was dissolved in 100 mM citrate buffer pH 4.5 and calculated amount of the fresh solution was injected to overnight fasted rats (45 mg/kg) intraperitoneally. Blood glucose level was checked 48 h later by glucostrips and animals showing blood glucose values between 144 to 270 mg/dl (8 to 15 mM) were included in the experiment and termed diabetic. The diabetic animals were divided into groups consisting of five to six animals in each group. Animals of experimental groups were administered suspension of the desired test samples orally (made in 1.0% gum acacia) at a dose of 100-mg/kg-body weight. Animals of control group were given an equal amount of 1.0% gum acacia. A sucrose load of 2.5-g/kg body weight was given after 30 minutes of compound administration. After 30 minutes of post sucrose load blood glucose level was again checked by glucostrips at 30, 60, 90, 120, 180, 240, 300 min and at 24 h, respectively. Animals not found diabetic after 24 hours post treatment of the test sample were not considered and omitted from the calculations and termed as non-responders. […] Food but not water was withheld from the cages during the experimentation. Comparing the AUC of experimental and control groups determined the percent antihyperglycemic activity. Statistical comparison between groups was made by Student's ‘t’ test.
As depicted in the FIGURE, a dose response curve of 34 was obtained by administering different doses of test compound to streptozotocin-induced diabetic rats (Table 6). […]

[4] = phospholipid, read-out: % Fall in lipid levels (Triton model) PL
[5] = total cholesterol, read-out: % Fall in lipid levels (Triton model) TC
[6] = triglycerides, read-out: % Fall in lipid levels (Triton model) TG

melting point: 177 to 179 °C
Structure (SMILES): CC(C)NCC(O)COc1ccc2c(=O)cc(-c3ccc(OCc4ccccc4)c(OCc4ccccc4)c3)oc2c1 (stereo not shown) [Compound 38, 3′,4′-Dibenzyloxy-7-(2-hydroxy-3-iso-propylamino-propoxy)-flavone]
inhibition in vivo at 100 mg/kg [1, 4]: 5%
inhibition in vivo at 100 mg/kg [1, 5]: 16%
inhibition in vivo at 100 mg/kg [1, 6]: 14%
% Fall in blood glucose levels, SLM [2]: NIL

melting point: 168 to 170 °C
Structure (SMILES): O=c1cc(-c2cc(OCc3ccccc3)cc(OCc3ccccc3)c2)oc2cc(OCC(O)CN3CCN(c4ccccc4)CC3)ccc12 (stereo not shown) [Compound 36, 3′,5′-Dibenzyloxy-7-[2-hydroxy-3-(4-phenylpiperazin-1-yl)-propoxy]-flavone]
inhibition in vivo at 100 mg/kg [1, 4]: 21%
inhibition in vivo at 100 mg/kg [1, 5]: 24%
inhibition in vivo at 100 mg/kg [1, 6]: 17%
inhibition in vivo at 100 mg/kg [2]: 34.6%
% Fall in blood glucose levels, STZ-S 5 h [3]: NIL
% Fall in blood glucose levels, STZ-S 24 h [3]: 2.46%

melting point: 119 to 120 °C
Structure (SMILES): COc1cc(-c2cc(=O)c3ccc(OCC(O)CNC(C)(C)C)cc3o2)cc(OC)c1OC (stereo not shown) [Compound 40, 7-(3-tert-Butylamino-2-hydroxy-propoxy)-3′,4′,5′-trimethoxy-flavone]
inhibition in vivo at 100 mg/kg [1, 4]: 26%
inhibition in vivo at 100 mg/kg [1, 5]: 24%
inhibition in vivo at 100 mg/kg [1, 6]: 28%
% Fall in blood glucose levels, SLM [2]: NIL

melting point: 106 to 107 °C
Structure (SMILES): COc1cc(-c2cc(=O)c3ccc(OCC(O)CNC(C)C)cc3o2)cc(OC)c1OC (stereo not shown) [Compound 41, 7-(2-Hydroxy-3-iso-propylamino-propoxy)-3′,4′,5′-trimethoxy-flavone]
inhibition in vivo at 100 mg/kg [1, 4]: 16%
inhibition in vivo at 100 mg/kg [1, 5]: 18%
inhibition in vivo at 100 mg/kg [1, 6]: 19%
inhibition in vivo at 100 mg/kg [2]: 20.7%
% Fall in blood glucose levels, STZ-S 5 h [3]: 17.4%
% Fall in blood glucose levels, STZ-S 24 h [3]: 19.1%

melting point: 156 to 157 °C
Structure (SMILES): CC(C)(C)NCC(O)COc1ccc2oc(-c3ccc(OCc4ccccc4)c(OCc4ccccc4)c3)cc(=O)c2c1 (stereo not shown) [Compound 39, 6-(3-tert-Butylamino-2-hydroxy-propoxy)-3′,4′-dibenzyloxy-flavone]
inhibition in vivo at 100 mg/kg [1, 4]: 12%
inhibition in vivo at 100 mg/kg [1, 5]: 21%
inhibition in vivo at 100 mg/kg [1, 6]: 17%
inhibition in vivo at 100 mg/kg [2]: 21.8%
% Fall in blood glucose levels, STZ-S 5 h [3]: 14.9%
% Fall in blood glucose levels, STZ-S 24 h [3]: 0.36%

melting point: 159 to 161 °C
Structure (SMILES): CC(C)(C)NCC(O)COc1ccc2c(=O)cc(-c3ccc(OCc4ccccc4)c(OCc4ccccc4)c3)oc2c1 (stereo not shown) [Compound 37, 7-(3-tert-Butylamino-2-hydroxy-propoxy)-3′,4′-dibenzyloxy-flavone]
inhibition in vivo at 100 mg/kg [1, 4]: 12%
inhibition in vivo at 100 mg/kg [1, 5]: 23%
inhibition in vivo at 100 mg/kg [1, 6]: 16%
% Fall in blood glucose levels, SLM [2]: NIL

melting point: 153 °C (dec.)
Structure (SMILES): CC(C)(C)NCC(O)COc1ccc2c(=O)cc(-c3cc(O)cc(O)c3)oc2c1 (stereo not shown) [Compound 48, 7-(3-tert-Butylamino-2-hydroxy-propoxy)-3′,5′-dihydroxy-flavone]
inhibition in vivo at 100 mg/kg [1, 4]: 4%
inhibition in vivo at 100 mg/kg [1, 5]: 17%
inhibition in vivo at 100 mg/kg [1, 6]: 16%
inhibition in vivo at 100 mg/kg [2]: 19.1%
% Fall in blood glucose levels, STZ-S 5 h [3]: NIL
% Fall in blood glucose levels, STZ-S 24 h [3]: NIL
